Data taken from ChEMBL document CHEMBL1201862, “PubChem BioAssay data set” (2004).
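Step 1: Grow cells in 96-well plates. Step 2: Expose to compound for 48 hours at 5 concentrations. Step 3: Interpolate endpoints linearly; if unreached, use highest concentration. GI50 = concentration required for 50% inhibition of growth.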 Calls of active or inactive are those of the source. No stated cut-off is given here; in the data, active = GI50 up to about 1.1 µM and inactive = higher.

Key:
Assay in all cases: NCI-60 cell line screen, 48 h
[1] = tested on: A498
[2] = tested on: CCRF-CEM
[3] = tested on: COLO 205
[4] = tested on: HOP-62
[5] = tested on: HOP-92
[6] = tested on: HT-29
[7] = tested on: Hs-578T
[8] = tested on: MCF7
[9] = tested on: MOLT-4
[10] = tested on: Malme-3M
[11] = tested on: NCI-H226
[12] = tested on: NCI-H522
[13] = tested on: OVCAR-5
[14] = tested on: RPMI-8226
[15] = tested on: SK-MEL-2
[16] = tested on: SNB-75
[17] = tested on: SW-620
[18] = tested on: UO-31
[19] = tested on: PC-3
[20] = tested on: SK-MEL-28

Measured: GI50

COc1ccc(-c2cc3ccccc3oc2=O)cc1OC
inactive: [1] > 100 µM | [2] > 100 µM | [3] > 100 µM | [4] > 100 µM | [5] > 100 µM | [6] > 100 µM | [7] > 100 µM | [8] > 100 µM | [9] > 100 µM | [10] > 100 µM | [11] > 100 µM | [12] > 100 µM | [13] > 100 µM | [14] 44.6 µM | [15] > 100 µM | [16] 60.3 µM | [17] > 100 µM | [18] > 100 µM

CNC(=S)N/N=C/c1ccc([N+](=O)[O-])s1
inactive: [1] > 10 µM | [2] > 10 µM | [3] 1.81 µM | [4] > 10 µM | [5] > 10 µM | [6] 3.13 µM | [7] > 10 µM | [9] > 10 µM | [10] 7.53 µM | [11] > 10 µM | [12] > 10 µM | [13] > 10 µM | [19] 3.01 µM | [14] > 10 µM | [20] > 10 µM | [15] > 10 µM | [16] > 10 µM | [17] > 10 µM | [18] > 10 µM

S=C(Nc1ccccc1)N(Cc1ccccc1)c1ccccc1
inactive: [1] 14.6 µM | [2] 28.4 µM | [3] 23.3 µM | [4] 49.3 µM | [5] 29.9 µM | [6] 22.5 µM | [7] 20 µM | [8] 33.7 µM | [9] 25.5 µM | [10] 11.2 µM | [11] 35.7 µM | [12] 21 µM | [13] > 100 µM | [14] 34.9 µM | [20] 17.4 µM | [15] 17.3 µM | [16] 22.5 µM | [17] 13.7 µM | [18] 29.3 µM

NNC(=O)c1ccc(-n2nnc(C(=O)NN)c2C(=O)NN)cc1
inactive: [2] > 100 µM | [3] > 100 µM | [4] > 100 µM | [5] > 100 µM | [6] > 100 µM | [8] > 100 µM | [9] > 100 µM | [10] > 100 µM | [13] > 100 µM | [19] > 100 µM | [14] > 100 µM | [20] > 100 µM | [15] > 100 µM | [18] > 100 µM

CCOC(=O)C1=CC(C)(C(=O)OCC)Nc2c(nc(SC)n(C)c2=O)N1 (centres undefined)
inactive: [1] > 10 µM | [2] > 10 µM | [3] > 10 µM | [4] > 10 µM | [5] > 10 µM | [6] > 10 µM | [8] > 10 µM | [9] > 10 µM | [10] > 10 µM | [11] > 10 µM | [12] > 10 µM | [13] > 10 µM | [19] > 10 µM | [14] > 10 µM | [20] > 10 µM | [15] > 10 µM | [16] > 10 µM | [17] > 10 µM | [18] > 10 µM

O=C(NC(=S)NC(=O)c1cc(O)c(O)c(O)c1)c1cc(O)c(O)c(O)c1
inactive: [1] > 100 µM | [2] 4.41 µM | [3] 22.6 µM | [5] 32.7 µM | [6] 25.9 µM | [8] 38.7 µM | [9] > 10 µM | [11] 39.1 µM | [12] 22.7 µM | [13] 27 µM | [19] 19.7 µM | [14] 48.3 µM | [20] 27.8 µM | [15] 20.1 µM | [17] 27.7 µM | [18] 22.4 µM

CC(C)(c1ccccc1)c1ccc(OC#N)cc1
inactive: [1] > 100 µM | [2] 40.6 µM | [3] > 41.3 µM | [4] > 100 µM | [5] 37.3 µM | [6] > 70.3 µM | [9] 35.2 µM | [10] > 100 µM | [11] 51.5 µM | [12] 15.2 µM | [13] > 100 µM | [14] 34.1 µM | [20] > 70.5 µM | [15] > 100 µM | [16] 15.2 µM | [17] 99.3 µM | [18] 49.1 µM

CN1C(=O)C(=O)c2cc3c(c4c2c1cc1ccccc14)OCO3 [CEPHARADIONE A]
inactive: [1] > 100 µM | [2] 8.95 µM | [3] 28.7 µM | [4] 41.2 µM | [5] > 100 µM | [6] 34.4 µM | [9] 17.9 µM | [10] 38.8 µM | [11] 25.2 µM | [12] 22.6 µM | [13] 48.8 µM | [14] 25.1 µM | [20] 40.5 µM | [15] 46.7 µM | [16] 39.2 µM | [17] 35.4 µM | [18] 20.2 µM
